Measurements taken from US20220356186A1, “PERK INHIBITING PYRROLOPYRIMIDINE COMPOUNDS” (HiberCell, Inc., priority 2019, published 2022).
Where two headings read alike, the source gives them in different places.

Legend:
[1] = molecular target: T1, EIF2AK3 (PERK) catalytic domain (amino acids 536-1116) (Homo sapiens, UniProt Q9NZJ5); test: PERK in vitro activity assay (isolated), TR-FRET kinase assay; type: biochemical; details: isolated PERK enzyme, 1.5 μM ATP; read-out: Biochemical IC50
T1 construct: EIF2AK3 (PERK) catalytic domain (amino acids 536-1116)
T1 sequence (Q9NZJ5 536-1116): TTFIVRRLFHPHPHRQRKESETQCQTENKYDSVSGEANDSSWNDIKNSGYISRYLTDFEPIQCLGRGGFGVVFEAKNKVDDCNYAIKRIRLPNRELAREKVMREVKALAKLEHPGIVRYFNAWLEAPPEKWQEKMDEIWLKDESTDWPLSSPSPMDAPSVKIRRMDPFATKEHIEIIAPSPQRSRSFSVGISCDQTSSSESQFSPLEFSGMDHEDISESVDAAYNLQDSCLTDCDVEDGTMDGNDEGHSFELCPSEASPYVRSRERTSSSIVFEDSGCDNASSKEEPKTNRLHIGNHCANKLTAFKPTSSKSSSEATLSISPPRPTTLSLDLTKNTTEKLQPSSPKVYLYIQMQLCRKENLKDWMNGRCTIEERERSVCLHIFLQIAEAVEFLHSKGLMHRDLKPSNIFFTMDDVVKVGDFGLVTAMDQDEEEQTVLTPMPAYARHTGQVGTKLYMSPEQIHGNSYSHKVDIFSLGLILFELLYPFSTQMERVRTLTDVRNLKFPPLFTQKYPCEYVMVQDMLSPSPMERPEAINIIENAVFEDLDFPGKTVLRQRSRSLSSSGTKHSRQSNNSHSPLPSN
Method in brief: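 TR-FRET read-out: after EDTA stop (10 mM final), Tb-labelled phospho-eIF2a antibody (2 nM) for 90 min; IC50 via 4-parameter nonlinear fit. Reaction: PERK aa 536-1116, GFP-eIF2a 100-200 nM, HEPES pH 7.5 with MgCl2/EGTA/Brij-35, 45 min, room temperature, started by enzyme.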

[2] = system: GFP-eIF2α in HEK293 cells; test: PERK cellular assay, TR-FRET in HEK293-EGFP-eIF2a cells after tunicamycin-induced ER stress; type: cell-based; details: HEK293-EGFP-eIF2a cells, tunicamycin 2 hours, read-out: Cellular eIF2α IC50
Method in brief: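 Compounds were added 30 min before a 2 h tunicamycin ([…]) challenge of lentivirally made GFP-eIF2α HEK293 cells, 5000/well; lysate TR-FRET ratio was the read-out.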

Cc1nc(N)c2c(-c3ccc(NC(=O)C(O)c4cccc(F)c4)c(F)c3C)cn(C)c2n1 (stereo not shown) [Example 13, N-(4-(4-amino-2,7-dimethyl-7H-pyrrolo[2,3-d]pyrimidin-5-yl)-2-fluoro-3-methylphenyl)-2-(3-fluorophenyl)-2-hydroxyacetamide]
IC50 [1]: 51 to 100 nM
IC50 [2]: 1000 to 2000 nM

Cc1nc(N)c2c(-c3ccc(NC(=O)C(O)c4cc(F)cc(F)c4)cc3F)cn(C)c2n1 (stereo not shown) [Example 84, N-(4-(4-amino-2,7-dimethyl-7H-pyrrolo[2,3-d]pyrimidin-5-yl)-3-fluorophenyl)-2-(3,5-difluorophenyl)-2-hydroxyacetamide]
IC50 [1]: 51 to 100 nM
IC50 [2]: 101 to 250 nM

CCc1cccc(CC(=O)Nc2ccc(-c3cn(C)c4ncnc(N)c34)c(C)c2)c1 [Example 146, N-(4-(4-amino-7-methyl-7H-pyrrolo[2,3-d]pyrimidin-5-yl)-3-methylphenyl)-2-(3-ethylphenyl)acetamide]
IC50 [1]: 1 to 25 nM
IC50 ([2]; Homo sapiens, HEK293, 2 h): 1 to 25 nM

Cc1c(-c2cn(C)c3ncnc(N)c23)ccc(NC(=O)C(O)c2cccc(F)c2)c1F (stereo not shown) [Example 118, N-(4-(4-amino-7-methyl-7H-pyrrolo[2,3-d]pyrimidin-5-yl)-2-fluoro-3-methylphenyl)-2-(3-fluorophenyl)-2-hydroxyacetamide]
IC50 [1]: 26 to 50 nM
IC50 [2]: 251 to 500 nM

Cc1nc(N)c2c(-c3ccc(NC(=O)C(O)c4cc(F)cc(F)c4)cc3F)cn(C)c2n1 (stereo not shown) [Example 83, N-(4-(4-amino-2,7-dimethyl-7H-pyrrolo[2,3-d]pyrimidin-5-yl)-3-fluorophenyl)-2-(3,5-difluorophenyl)-2-hydroxyacetamide]
IC50 [1]: 1 to 25 nM
IC50 [2]: 1 to 25 nM

Cc1nc(N)c2c(-c3ccc(NC(=O)C(O)c4ccccc4Cl)cc3F)cn(C)c2n1 (stereo not shown) [Example 70, N-(4-(4-amino-2,7-dimethyl-7H-pyrrolo[2,3-d]pyrimidin-5-yl)-3-fluorophenyl)-2-(2-chlorophenyl)-2-hydroxyacetamide]
IC50 [1]: 1000 to 2000 nM
IC50 ([2]; Homo sapiens, HEK293, 2 h): > 5000 nM

Cc1ccc(CC(=O)Nc2ccc(-c3cn(C)c4ncnc(N)c34)c(C)c2)cc1 [Example 144, N-(4-(4-amino-7-methyl-7H-pyrrolo[2,3-d]pyrimidin-5-yl)-3-methylphenyl)-2-(p-tolyl)acetamide]
IC50 [1]: 1 to 25 nM
IC50 ([2]; Homo sapiens, HEK293, 2 h): 101 to 250 nM

Cc1cc(NC(=O)C(O)c2cccc(Cl)c2)ccc1-c1cn(C)c2ncnc(N)c12 (stereo not shown) [Example 35, N-(4-(4-amino-7-methyl-7H-pyrrolo[2,3-d]pyrimidin-5-yl)-3-methylphenyl)-2-(3-chlorophenyl)-2-hydroxyacetamide]
IC50 [1]: 1 to 25 nM
IC50 ([2]; Homo sapiens, HEK293, 2 h): 1 to 25 nM

Cc1cccc(CC(=O)Nc2ccc(-c3cn(C)c4ncnc(N)c34)c(C)c2)n1 [Example 136, N-(4-(4-amino-7-methyl-7H-pyrrolo[2,3-d]pyrimidin-5-yl)-3-methylphenyl)-2-(6-methylpyridin-2-yl)acetamide]
IC50 [1]: 1 to 25 nM
IC50 ([2]; Homo sapiens, HEK293, 2 h): 1 to 25 nM

Cc1nc(N)c2c(-c3ccc(NC(=O)C(O)c4cccc(C(F)(F)F)c4)cc3C)cn(C)c2n1 (stereo not shown) [Example 51, N-(4-(4-amino-2,7-dimethyl-7H-pyrrolo[2,3-d]pyrimidin-5-yl)-3-methylphenyl)-2-hydroxy-2-(3-(trifluoromethyl)phenyl)acetamide]
IC50 [1]: 101 to 250 nM
IC50 [2]: 501 to 1000 nM

Cc1nc(N)c2c(-c3ccc(NC(=O)C(O)c4cc(F)cc(F)c4)cc3C)cn(C)c2n1 (stereo not shown) [Example 52, N-(4-(4-amino-2,7-dimethyl-7H-pyrrolo[2,3-d]pyrimidin-5-yl)-3-methylphenyl)-2-(3,5-difluorophenyl)-2-hydroxyacetamide]
IC50 [1]: 1 to 25 nM
IC50 [2]: 1 to 25 nM

Cc1cc(NC(=O)Cc2cccc3cnccc23)ccc1-c1cn(C)c2ncnc(N)c12 [Example 156, N-(4-(4-amino-7-methyl-7H-pyrrolo[2,3-d]pyrimidin-5-yl)-3-methylphenyl)-2-(isoquinolin-5-yl)acetamide]
IC50 [1]: 51 to 100 nM
IC50 ([2]; Homo sapiens, HEK293, 2 h): 251 to 500 nM

Cc1cc(NC(=O)c2ccccc2)ccc1-c1cn(C)c2ncnc(N)c12 [Example 167, N-(4-(4-amino-7-methyl-7H-pyrrolo[2,3-d]pyrimidin-5-yl)-3-methylphenyl)benzamide]
IC50 [1]: 101 to 250 nM
IC50 ([2]; Homo sapiens, HEK293, 2 h): 3000 to 4000 nM

Cc1nc(N)c2c(-c3ccc(NC(=O)C(O)c4cccc(F)c4)cc3Cl)cn(C)c2n1 (stereo not shown) [Example 92, N-(4-(4-amino-2,7-dimethyl-7H-pyrrolo[2,3-d]pyrimidin-5-yl)-3-chlorophenyl)-2-(3-fluorophenyl)-2-hydroxyacetamide]
IC50 [1]: 1 to 25 nM
IC50 [2]: 51 to 100 nM

Cc1nc(N)c2c(-c3ccc(NC(=O)C(O)c4ccccc4C)cc3Cl)cn(C)c2n1 (stereo not shown) [Example 94, N-(4-(4-amino-2,7-dimethyl-7H-pyrrolo[2,3-d]pyrimidin-5-yl)-3-chlorophenyl)-2-hydroxy-2-(o-tolyl)acetamide]
IC50 [1]: 1 to 25 nM
IC50 [2]: 51 to 100 nM

Cc1nc(N)c2c(-c3ccc(NC(=O)C(O)c4cccc(Cl)c4)cc3Cl)cn(C)c2n1 (stereo not shown) [Example 99, N-(4-(4-amino-2,7-dimethyl-7H-pyrrolo[2,3-d]pyrimidin-5-yl)-3-chlorophenyl)-2-(3-chlorophenyl)-2-hydroxyacetamide]
IC50 [1]: 1 to 25 nM
IC50 [2]: 1 to 25 nM

Cc1cccc(C(O)C(=O)Nc2ccc(-c3cn(C)c4nc(C)nc(N)c34)c(F)c2)c1 (stereo not shown) [Example 73, N-(4-(4-amino-2,7-dimethyl-7H-pyrrolo[2,3-d]pyrimidin-5-yl)-3-fluorophenyl)-2-hydroxy-2-(m-tolyl)acetamide]
IC50 [1]: 26 to 50 nM
IC50 [2]: 501 to 1000 nM

Cc1cc(NC(=O)C(O)c2ccccc2C(F)(F)F)ccc1-c1cn(C)c2ncnc(N)c12 (stereo not shown) [Example 45, N-(4-(4-amino-7-methyl-7H-pyrrolo[2,3-d]pyrimidin-5-yl)-3-methylphenyl)-2-hydroxy-2-(2-(trifluoromethyl)phenyl)acetamide]
IC50 [1]: 1 to 25 nM
IC50 ([2]; Homo sapiens, HEK293, 2 h): 101 to 250 nM

Cc1nc(N)c2c(-c3ccc(NC(=O)C(O)c4cc(F)cc(F)c4)c(F)c3F)cn(C)c2n1 (single isomer, unassigned) [Example 114, N-(4-(4-amino-2,7-dimethyl-7H-pyrrolo[2,3-d]pyrimidin-5-yl)-2,3-difluorophenyl)-2-(3,5-difluorophenyl)-2-hydroxyacetamide]
IC50 [1]: 251 to 500 nM
IC50 [2]: 1000 to 2000 nM

Cc1cc(NC(=O)Cc2ccc(Cl)cc2)ccc1-c1cn(C)c2ncnc(N)c12 [Example 151, N-(4-(4-amino-7-methyl-7H-pyrrolo[2,3-d]pyrimidin-5-yl)-3-methylphenyl)-2-(4-chlorophenyl)acetamide]
IC50 [1]: 1 to 25 nM
IC50 ([2]; Homo sapiens, HEK293, 2 h): 101 to 250 nM

COc1cc(NC(=O)C(O)c2cccc(F)c2)ccc1-c1cn(C)c2nc(C)nc(N)c12 (single isomer, unassigned) [Example 106, N-(4-(4-amino-2,7-dimethyl-7H-pyrrolo[2,3-d]pyrimidin-5-yl)-3-methoxyphenyl)-2-(3-fluorophenyl)-2-hydroxyacetamide]
IC50 [1]: 101 to 250 nM
IC50 [2]: 1000 to 2000 nM

Cc1cccc(CC(=O)Nc2ccc(-c3cn(C)c4nc(C)nc(N)c34)c(C)c2)n1 [Example 135, N-(4-(4-amino-2,7-dimethyl-7H-pyrrolo[2,3-d]pyrimidin-5-yl)-3-methylphenyl)-2-(6-methylpyridin-2-yl)acetamide]
IC50 [1]: 26 to 50 nM
IC50 ([2]; Homo sapiens, HEK293, 2 h): 251 to 500 nM

Cn1cc(-c2ccc(NC(=O)C(O)c3cccc(F)c3)cc2)c2c(N)ncnc21 (stereo not shown) [Example 30, N-(4-(4-amino-7-methyl-7H-pyrrolo[2,3-d]pyrimidin-5-yl)phenyl)-2-(3-fluorophenyl)-2-hydroxyacetamide]
IC50 [1]: 1 to 25 nM
IC50 [2]: 101 to 250 nM
